Results: patent US20260184692A1, “HETEROCYCLIC COMPOUNDS, PREPARATION METHODS AND USES THEREOF” (InventisBio Co., Ltd., priority 2022, published 2026)

Assays:
[1] = system: OVCAR3 Cells; test: OVCAR3 Cell Viability Assay (CellTiter-Glo); assay type: cell-based; conditions: Homo sapiens, OVCAR-3, 144 h, 6 days incubation, read-out: OVCAR3 CTG IC50
In short: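 Cells seeded at 2000/well in RPMI1640 + 20% FBS + insulin, treated next day with serially diluted compound for 6 days at 37 °C, 5% CO2 (0.5% DMSO final). Viability by CellTiter-Glo luminescence; inhibition normalised to DMSO and blank controls, IC50 from four-parameter fit.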

[2] = system: HCC1806 Cells; test: HCC1806 Cell Viability Assay (CellTiter-Glo); assay type: cell-based; conditions: Homo sapiens, 144 h, 6 days incubation, read-out: HCC1806 CTG IC50
Method: HCC1806 Cells (ATCC, Cat #CRL-2335) were seeded at a density of 500 cells/well in a 96-well clear bottom plate (Greiner, Cat #655098) in 100 μL of complete media (RPMI1640+10% FBS). One hundred microliter of complete media was added into the blank wells (column 1) for low control. Cells were allowed to adhere to the plate overnight in the incubator at 37° C., 5% CO2. On the following day, 0.5 μL of serially-diluted compounds were added to the cells (columns 2-10) and incubated for 6 days at 37° C., 5% CO2 (final 0.5% DMSO concentration); 0.5 μL of DMSO solution was added into the wells (column 11) for high control. Cell viability was detected according to the CellTiter-Glo Luminescent Cell Viability Assay Kit (Promega, Cat #G7573). Luminescence was recorded on the Tecan Spark plate reader. Inhibition rate (IR) of the tested compounds was determined by the following formula: IR (%)=(1−(RLUcompound−RLUlow control)/(RLUhigh control−RLUlow control))×100%. The IC50 value was calculated using the non-linear regression equation: Y=Bottom+(Top−Bottom)/(1+10^((Log IC50−X)×HillSlope)), where X is Log of compound concentration, Y is percent inhibition (IR (%)), Top and Bottom are plateaus in same units as Y.

[3] = Mouse PK Assay; assay type: in vivo; conditions: plasma, male BALB/c mouse
[4] = molecular target: T1, PXR (Homo sapiens, UniProt O75469); test: In Vitro PXR Activation Study (DPX2 cells); assay type: cell-based; conditions: concentration 30 uM, 48 h treatment
T1 construct: expressed in transfected cells; host or cells: DPX2 cells
T1 sequence (O75469 1-434): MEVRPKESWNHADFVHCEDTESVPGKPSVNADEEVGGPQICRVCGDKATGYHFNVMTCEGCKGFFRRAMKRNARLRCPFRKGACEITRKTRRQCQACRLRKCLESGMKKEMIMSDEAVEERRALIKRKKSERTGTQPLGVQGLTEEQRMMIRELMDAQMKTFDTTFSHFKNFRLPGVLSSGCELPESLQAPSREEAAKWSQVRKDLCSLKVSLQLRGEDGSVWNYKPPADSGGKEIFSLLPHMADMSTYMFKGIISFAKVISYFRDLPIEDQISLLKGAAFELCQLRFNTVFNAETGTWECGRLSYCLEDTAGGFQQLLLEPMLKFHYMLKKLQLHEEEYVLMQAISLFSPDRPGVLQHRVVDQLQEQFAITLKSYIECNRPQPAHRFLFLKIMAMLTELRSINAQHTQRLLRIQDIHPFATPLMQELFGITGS
Method: Prepared the culture medium for DPX2 cells using DPX2 culturing medium supplemented with 10% FBS. Cultivated DPX2 cells in T-75 flasks in a cell culture incubator set at 37 C, 5% CO2, 95% relative humidity. Allowed cells to reach 80-90% confluence before detaching and splitting. Rinsed cultivated cells in T-75 flasks with 5 mL PBS. Aspirate off, add 1.5 mL trypsin, and incubated at 37° C. for approximately 5 minutes or until the cells detach and float. Inactivated trypsin by adding excess serum containing medium. Removed cell suspension to a conical tube and pellet cells by centrifugation at 150×g for 5 minutes. Resuspended cells in seeding medium at a density of 3.2×10^5 cells/mL. Transferred 25 μL to each well of 384-well cell culture plate. Placed plate(s) in incubator and incubate at 37° C. for 24 hours.
Prepared stock solutions of test compounds and inducers in DMSO. Final concentration of DMSO in the treatment group should be 0.1%. Removed the plates from the incubator and directly add 25 μL of the negative control, inducers, or test article solutions. Returned plates to the incubator for 48 hours. […] After 48 h of treatment, the cultures were ready for the determination of quantitation of PXR activation.
The fold-activation mRNA level was determined by the equation: […]

[5] = Human Plasma Protein Binding Assay (dialysis); assay type: in vitro ADME; conditions: 1 μM compound, dialysis 6 hr at 37 °C
Method: The plasma protein binding of compounds in human plasma was determined using a dialysis method. The dialysis membrane strips were prepared by soaking them in ultra-pure water for about 1 hr at room temperature, followed by separation and soaking in ethanol:water (20:80 v:v) for about 20 min, and a final rinse with ultra-pure water. Prior to use, the membranes were rinsed and soaked for another 20 min in ultra-pure water.
The blank plasma samples were thawed, centrifuged and verified its pH values. Only the plasma with pH between 7.0-8.0 was used in the experiment. The final concentration of compound in the spiked plasma is 1 μM, with final DMSO<=1%. All samples were prepared in triplicates. The time zero (T0) samples was used for determining the recovery of the compound of interest after dialysis. It was prepared in the same way as other dialysis samples except it was stored at 2-8° C. before LC-MS/MS analysis.
The other spiked plasma samples were loaded onto the dialysis device and incubated at and 37±1° C. with 5% CO2 for 6 hr. At the end of the dialysis, aliquots of samples from the plasma and buffer sides of the dialysis device were taken and processed for LC-MS/MS analysis.
The % Unbound, % Bound, and % Recovery of the compounds were calculated from the peak area ratios of the analyte and internal standard in the plasma and buffer samples as shown in the following equations:
[formula] [formula] [formula] • where [F] is the peak area ratio of analyte/internal standard on the buffer (receiver) side of the membrane; [T] is the peak area ratio of analyte/internal standard on the plasma (donor) side of the membrane; [T0] is the peak area ratio of analyte/internal standard in the plasma sample at time zero.

[6] = molecular target: T2, P450 2C9 (Homo sapiens, UniProt P11712); test: In Vitro Cytochrome P450 Inhibition Study; assay type: in vitro ADME; conditions: human liver microsomes (HLM), test compound 0.137 μM to 10 μM, 10 min at 37 °C
T2 construct: incubation with known industry-accepted CYP450 substrates, test articles and microsomes (HLM); from tissue; host or cells: liver microsomes (HLM)
T2 sequence (P11712 whole entry): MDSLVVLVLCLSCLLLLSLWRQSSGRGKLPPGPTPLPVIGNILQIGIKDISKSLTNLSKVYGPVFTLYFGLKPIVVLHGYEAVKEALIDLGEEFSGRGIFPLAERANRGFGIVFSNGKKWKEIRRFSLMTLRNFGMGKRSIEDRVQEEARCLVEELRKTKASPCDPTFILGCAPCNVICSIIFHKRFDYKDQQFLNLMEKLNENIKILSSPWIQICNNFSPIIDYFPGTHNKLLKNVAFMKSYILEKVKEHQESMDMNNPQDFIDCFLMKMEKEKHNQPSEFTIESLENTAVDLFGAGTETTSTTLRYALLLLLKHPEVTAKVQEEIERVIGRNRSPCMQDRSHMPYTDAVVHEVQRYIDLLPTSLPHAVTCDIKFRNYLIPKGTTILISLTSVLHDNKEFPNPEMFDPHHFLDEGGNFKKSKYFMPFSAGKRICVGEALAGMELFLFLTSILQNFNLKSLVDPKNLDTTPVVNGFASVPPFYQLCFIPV
Method: CYP inhibition was evaluated by monitoring corresponding metabolite decrease after incubation with known industry-accepted CYP450 substrates, test articles and microsomes (HLM).
Eight reaction wells with 30 μL of a solution containing 100 mM potassium phosphate, pH 7.4 and 1:3 serial dilutions of the test compound were prepared along with eight wells of 1:3 serial dilutions of Sulfaphenazole (a positive control inhibitor). The assay plates were pre-warmed after 15 μL of probe substrate was added into appropriate wells. Then the reactions were initiated by adding 15 μL of a pre-warmed 8 mM NADPH solution resulting in a final NADPH concentration of 2 mM. The concentrations of test compound ranged from 0.137 μM to 10 μM. A zero time-point control reaction was prepared by adding 135 μL acetonitrile (ACN) containing tolbutamide (200 ng/mL) as internal standard (IS) to 30 μL. of the reaction solution to inactivate the enzymes before adding the probe substrate. A control reaction with no inhibitor was also prepared. After a suitable incubation at 37° C., 10 min, the reactions were terminated by the addition of 135 μL ACN containing IS. The reactions were prepared and analyzed for the metabolite forms of the probe substrate using LC-MS/MS.

Row | IC50 [1] | IC50 [2] | MRT ([3]; IV) | half-life ([3]; single oral dose 5 mg/kg, read-out: PO T1/2 (converted)) | Induction Fold [4] | fraction unbound at 6 hr, 1 μM [5] | IC50 [6] | SMILES
1 | < 200 nM | < 200 nM | 6.2 h | 3.7 h | 1.8x | – | – | N#Cc1ccc(N2CC3(CCC4(CC4)CC3)c3cc(NS(=O)(=O)CCO)ccc3C2=O)nc1N1CCC(F)(F)CC1 [Compound 27]
2 | < 200 nM | – | – | – | 1.7x | 0.001 | > 10000 nM | COc1ccc(N2CC3(CCC4(CC4)CC3)c3cc(NS(=O)(=O)CCO)ccc3C2=O)nc1N1CCC(F)(F)CC1 [Compound 133]
